Measurements: paper PMC7460560, “Discovery of Novel Agents on Spindle Assembly Checkpoint to Sensitize Vinorelbine-Induced Mitotic Cell Death against Human Non-Small Cell Lung Cancers” (International Journal of Molecular Sciences, 2020)

Key:
[1] = molecular target: T1, PDE5A1 (phosphodiesterase type 5) (Homo sapiens, UniProt O76074); experiment: PDE5A1 assay kit (BPS Bioscience), fluorescence polarization with FAM-cyclic-3', […]'-GMP; type: biochemical
T1 construct: gene PDE5A

tubulin = molecular target: T2, tubulin (Sus scrofa, UniProt P02550+P02554); experiment: in vitro pure tubulin polymerization assay (Cytoskeleton kit, […] nm), […] inhibition at […]; type: biochemical; conditions: read-out: % inhibition at 1000 nM
T2 construct: with alpha-tubulin
T2 sequence (P02554 whole entry): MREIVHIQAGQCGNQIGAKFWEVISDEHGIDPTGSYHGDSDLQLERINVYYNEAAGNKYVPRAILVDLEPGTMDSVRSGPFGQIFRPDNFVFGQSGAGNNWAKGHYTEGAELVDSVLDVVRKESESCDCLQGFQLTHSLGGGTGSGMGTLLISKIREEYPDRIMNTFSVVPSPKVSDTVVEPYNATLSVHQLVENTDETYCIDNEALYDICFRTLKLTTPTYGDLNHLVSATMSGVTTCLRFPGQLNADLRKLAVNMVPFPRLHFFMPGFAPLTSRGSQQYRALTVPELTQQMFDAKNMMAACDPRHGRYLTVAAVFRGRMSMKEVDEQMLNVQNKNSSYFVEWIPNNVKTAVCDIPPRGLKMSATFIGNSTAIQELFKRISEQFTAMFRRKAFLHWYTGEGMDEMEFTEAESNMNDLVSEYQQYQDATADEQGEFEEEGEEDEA
T2 sequence (P02550 whole entry): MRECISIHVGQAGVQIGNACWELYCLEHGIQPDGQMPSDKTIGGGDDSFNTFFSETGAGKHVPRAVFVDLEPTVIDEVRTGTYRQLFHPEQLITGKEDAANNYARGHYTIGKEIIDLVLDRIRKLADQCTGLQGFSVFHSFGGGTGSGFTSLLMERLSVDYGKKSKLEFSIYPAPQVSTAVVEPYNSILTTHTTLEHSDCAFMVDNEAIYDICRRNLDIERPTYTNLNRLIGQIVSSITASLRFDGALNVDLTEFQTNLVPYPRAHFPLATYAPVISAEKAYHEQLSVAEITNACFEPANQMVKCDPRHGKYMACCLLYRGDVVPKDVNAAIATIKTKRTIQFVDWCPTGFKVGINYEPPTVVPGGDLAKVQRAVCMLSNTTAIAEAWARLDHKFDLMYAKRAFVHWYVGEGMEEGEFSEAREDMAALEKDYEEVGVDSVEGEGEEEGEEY

Compound	IC50 [1]	inhibition at 1 µM (tubulin)
CCCn1nnc2c(OC)nc(-c3cc(S(=O)(=O)N4CCN(C)CC4)ccc3OC)nc21 [YL-9]	632 nM	
CCC1=C[C@@H]2CN(C1)Cc1c([nH]c3ccccc13)[C@@](C(=O)OC)(c1cc3c(cc1OC)N(C)[C@H]1[C@@](O)(C(=O)OC)[C@H](OC(C)=O)[C@]4(CC)C=CCN5CC[C@]31[C@@H]54)C2 [vinorelbine]		16.7%
